Paper PMC3979805, “Identification of Resveratrol Oligomers as Inhibitors of Cystic Fibrosis Transmembrane Conductance Regulator by High-Throughput Screening of Natural Products from Chinese Medicinal Plants” (PLoS ONE, 2014)

Assays:
[1] = target: T1, cystic fibrosis transmembrane conductance regulator (CFTR) (Homo sapiens, UniProt P13569); test: EYFP-H148Q iodide influx assay in FRT cells; excised inside-out patch-clamp ([…], nearly irreversible); type: cell-based
T1 construct: wild-type human CFTR stably expressed in FRT cells
T1 sequence (P13569 whole entry): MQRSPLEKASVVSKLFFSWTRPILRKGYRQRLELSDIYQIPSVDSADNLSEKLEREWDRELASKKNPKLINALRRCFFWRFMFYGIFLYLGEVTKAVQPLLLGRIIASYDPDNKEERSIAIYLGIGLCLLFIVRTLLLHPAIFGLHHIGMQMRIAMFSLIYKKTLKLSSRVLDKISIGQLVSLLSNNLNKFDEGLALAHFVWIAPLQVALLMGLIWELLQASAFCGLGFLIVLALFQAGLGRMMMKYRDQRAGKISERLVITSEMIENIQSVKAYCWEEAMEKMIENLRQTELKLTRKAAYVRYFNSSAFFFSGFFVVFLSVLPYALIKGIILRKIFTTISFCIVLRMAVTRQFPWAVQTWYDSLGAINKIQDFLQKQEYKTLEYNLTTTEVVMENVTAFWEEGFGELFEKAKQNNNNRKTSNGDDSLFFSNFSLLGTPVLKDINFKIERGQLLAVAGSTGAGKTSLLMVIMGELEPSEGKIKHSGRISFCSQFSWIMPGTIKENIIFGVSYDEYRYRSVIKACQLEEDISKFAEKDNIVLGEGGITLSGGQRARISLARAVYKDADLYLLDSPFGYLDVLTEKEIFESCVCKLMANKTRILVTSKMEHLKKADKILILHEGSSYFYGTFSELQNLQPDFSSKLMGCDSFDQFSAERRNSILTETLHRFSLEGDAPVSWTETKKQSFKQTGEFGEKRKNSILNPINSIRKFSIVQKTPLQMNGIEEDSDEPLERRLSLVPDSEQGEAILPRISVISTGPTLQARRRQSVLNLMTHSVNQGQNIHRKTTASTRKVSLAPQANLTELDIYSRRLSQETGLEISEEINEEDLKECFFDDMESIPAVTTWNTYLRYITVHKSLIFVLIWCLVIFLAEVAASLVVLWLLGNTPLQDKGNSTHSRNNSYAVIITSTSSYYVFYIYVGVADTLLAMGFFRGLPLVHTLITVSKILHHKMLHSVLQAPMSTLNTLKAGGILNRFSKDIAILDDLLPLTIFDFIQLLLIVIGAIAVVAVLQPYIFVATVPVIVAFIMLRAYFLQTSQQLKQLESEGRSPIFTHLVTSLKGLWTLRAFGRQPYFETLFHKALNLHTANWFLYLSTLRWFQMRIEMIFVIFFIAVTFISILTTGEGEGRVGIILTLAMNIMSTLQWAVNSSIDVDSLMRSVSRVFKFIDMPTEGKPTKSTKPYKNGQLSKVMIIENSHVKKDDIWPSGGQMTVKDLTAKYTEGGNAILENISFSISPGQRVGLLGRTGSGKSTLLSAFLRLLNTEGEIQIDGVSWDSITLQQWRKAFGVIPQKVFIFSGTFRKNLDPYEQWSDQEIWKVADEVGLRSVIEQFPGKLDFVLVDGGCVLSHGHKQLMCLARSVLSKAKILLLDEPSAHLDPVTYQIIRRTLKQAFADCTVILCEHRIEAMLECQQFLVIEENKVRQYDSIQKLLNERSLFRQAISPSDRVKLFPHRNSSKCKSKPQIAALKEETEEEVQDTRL

[2] = target: T1, cystic fibrosis transmembrane conductance regulator (CFTR); test: EYFP-H148Q iodide influx assay in FRT cells; excised inside-out patch-clamp ([…], reversible); type: cell-based

IC50 [1]	IC50 [2]	Structure (SMILES)
~20 µM	–	Oc1ccc([C@H]2c3c(O)cc(O)cc3[C@H]3c4c(cc(O)cc4[C@H]2c2cc(/C=C/c4cc(O)cc5c4[C@H](c4cc(O)cc(O)c4)[C@@H](c4ccc(O)cc4)O5)ccc2O)O[C@@H]3c2ccc(O)cc2)cc1 [RV, r-2-viniferin]
–	~20 µM	Oc1ccc(/C=C/c2cc(O)cc3c2[C@H](c2cc(O)cc(O)c2)[C@@H](c2ccc(O)cc2)O3)cc1 [TV, trans-ε-viniferin]
